Measured values from US4654368A, “Tri-organotin silatrane derivatives and pesticidal compositions, fungicides or antifouling agents comprising said compounds as active ingredients” (Nitto Kasei Co., Ltd., priority 1984, dated 1987).

Assays:
[1] = test system: Aspergillus niger ATCC 6275; test: Test on fungicidal effect on fungi (agar medium diluting method); assay type: cell-based; details: PDA, 27° C., cultivation period 4 days
Method: (§1) By an agar medium diluting method, the fungicidal activities of compounds Nos. 12, 17, 18, 23, 24, 26, 27 and 32 of the invention on fungi doing harm to industrial products and materials were examined.
(§2) A hypha piece, 5 mm in diameter, of each of the fungi indicated in Table 3 was inoculated in a potato dextrose agar medium (PDA) containing each of the above compounds, and cultivated at 27° C. After the lapse of a predetermined period, the growth state of the fungus was observed, and the minimum inhibitory concentration of the compound was determined.

[2] = test system: Penicillium citrinum ATCC 9849; test: as above; assay type: cell-based; details: PDA, 27° C., cultivation period 4 days
Method: as §1, §2

[3] = test system: Caetomium globosum ATCC 6205; test: as above; assay type: cell-based; details: PDA, 27° C., cultivation period 3 days (compound 18: 4 days)
Method: as §1, §2

[4] = test system: Cladosporium herbarum TAMF 517; test: as above; assay type: cell-based; details: PDA, 27° C., cultivation period 4 days
Method: as §1, §2

[5] = test system: Culex pipiens; test: Test on insecticidal effect on Culex pipiens; assay type: in vivo; details: 3.5 ppm, wettable powder of Formulation Example 5 (contains Fenitrothion); for Death rate: final-instar larvae, next day, 1440 min; for Emergence inhibition rate: when all larvae in non-treated area emerged
Method: A wettable powder of each of compounds Nos. 2, 7, 8, 11, 13, 14, 17, 18 and 31 obtained in accordance with Formulation Example 5 was diluted with water to 3.5 ppm. One hundred milliliters of the dilution was put in each of 180 ml. polyethylene cups and 20 final-instar larvae of Culex pipiens were released into the cup. On the next day, the larvae were examined for mortality.
Thereafter, feeds were added to the test areas, and when all larvae n the non-treated area emerged, the emergence inhibition rate was examined.
The death rate and the emergence inhibition rate were rated by three grades as follows: […]

[6] = test system: tobacco cutworms (Prodenia litura Fabrficius); test: Test on insecticidal efficacy on tobacco cutworms; assay type: in vivo; details: 500 ppm in artificial feed, 4th-instar larvae, 6 days; wettable powder of Formulation Example 5 (contains Fenitrothion)
Method: A wettable powder of each of compounds Nos. 3, 7, 8, 9, 11, 12, 13, 14, 17, 18 and 31 of the invention obtained in accordance with Formulation Example 5 was diluted with water to 200 times (corresponding to a concentration of 500 ppm). Two milliliters of the dilution was impregnated in 13 g of an artificial feed for tobacco cutworms, and the feed was put in a polyethylene cup having a diameter of 11 cm. Ten 4th-instar larvae of tobacco cutworms were released into the cup, and examined for mortality 6 days later. The above experiment was carried out through two replicates.

[7] = test system: marine animals and plants; test: Test on antifouling effects on marine animals and plants in the sea; assay type: in vivo; details: antifouling paint on vinyl chloride plate, Owase Bay
Method: A ship bottom antifouling paint was prepared by adding 24 g of Rosin WW, 12 g of a vinyl copolymer, 4 g of tricresyl phosphate, 10 g of bentonite, 20 g of baryta, 20 g of red iron oxide, 35 g of xylene and 35 g of methyl isobutyl ketone to 40 g of each of compounds Nos. 2, 8, 14, 17, 20 and 32 of the invention and vigorously stirring the mixture at room temperature for 1 hour. The paint was coated on both surfaces of a rigid vinyl chloride resin plate, 17×9×0.3 cm in size, to a dry thickness of about 200 microns. The coated plate was submerged in the sea in Owase Bay, Mie Prefecture, Japan for 12 months, and its fouled state was regularly observed.
The symbols in the table show the following.

[8] = test system: Plasmopara viticola; test: Test on fungicidal effect on downy mildew of grape; assay type: in vivo; details: sprayed on grape seedlings
From the text: Sandy soil was filled in plastic pots, and seeds of grape (variety: Neomuscat) were sown, and grown for about 1 month in a greenhouse to obtain young seedlings of grape in the 2-3 leaf stage. A water dilution of an emulsifiable concentrate of a wettable powder of each of the test compounds was sprayed onto the leaves of these seedlings so that the chemical adhered fully to the surfaces of the leaves. After drying the chemical in air, a suspension of conidospores of a […] pathogen of grape (Plasmopara viticola) was inoculated in the seedling by spraying. The seedlings were placed for 2 days in a high humidity condition at 23° C., and subsequently cultivated for 14 days in a greenhouse kept at 20° to 25° C. to cause onset of the disease. Thereafter, the state of the disease was observed.
The degree of disease was calculated by the following method. The examined leaves were classified by indices of 0, 0.5, 1, 2 and 4 according to the degrees of appearance of lesions, and the degree of disease was calculated from the following equation.
0: No fungus colony or lesion was noted on the surface of the leaves.
The control index was calculated from the following equation. [formula]

[9] = test system: carmine mites (Tetranychus telarius L.); test: Miticidal effect on carmine mites; assay type: in vivo; parameters: key: -: Hardly any injury was observed.; +: Some injury was observed.; ++: The same injury as in the non-treated area was noted; details: 500 ppm active ingredient, spray plus soil, kidney beans, 8 days later
Method: Female imagoes of carmine mites were caused to live at a rate of 10 per leaf on bineless kidney beans (in the primary leaf stage) in pots 7 days after sowing, and kept in a constant temperature chamber at 25° C. Six days later, a chemical obtained by diluting a wettable powder of each of compounds Nos. 4-6, 9-13, 15, 16, 21, 22, 25, 28-30, 33, 34, 36, 37 and 38 with water to an active ingredient concentration of 500 ppm was sprayed at a rate of 10 ml per pot, and at the same time, 2 ml of the chemical was poured into the soil. Eight days later, injuries to the plants by the mites were examined.
The degree of injury is shown by -, + and ++ as follows: […]

SMILES | Minimum inhibitory concentration [1] | Minimum inhibitory concentration [2] | Minimum inhibitory concentration [3] | Minimum inhibitory concentration [4] | Death rate [5] | Emergence inhibition rate [5] | Death rate [6] | Fouled state, period of submerging 4 months [7] | Fouled state, period of submerging 8 months [7] | Fouled state, period of submerging 12 months [7] | Control index ([8]; 12.5 ppm active ingredient) | Control index ([8]; 50 ppm active ingredient) | Control index ([8]; 200 ppm active ingredient) | Degree of injury [9]
CC(C)[CH2][Sn]([CH2]C(C)C)([CH2]C(C)C)[S]CCC[Si]12OC(C)CN(CC(C)O1)CC(C)O2 (stereo not shown) [compound 27] | < 12.5 ppm | < 12.5 ppm | < 12.5 ppm | < 12.5 ppm |  |  |  |  |  |  |  |  |  | 
CCC[CH2][Sn]([CH2]CCC)([CH2]CCC)[S]CCC[Si]12OCCN(CCO1)CC(C)O2 (stereo not shown) [compound 24] | < 12.5 ppm | < 12.5 ppm | < 12.5 ppm | < 12.5 ppm |  |  |  |  |  |  |  |  |  | 
CC[CH2][Sn]([CH2]CC)([CH2]CC)[S]CCC[Si]12OCCN(CCO1)CCO2 [compound 17] | < 2.5 ppm | < 2.5 ppm | < 2.5 ppm | < 12.5 ppm | C (less than 10%) | A (90% or higher) | 100% | .circle. | .circle. | .circle. |  |  |  | 
CC(C)[CH2][Sn]([CH2]C(C)C)([CH2]C(C)C)[S]CCC[Si]12OCCN(CCO1)CCO2 [compound 26] | < 12.5 ppm | < 12.5 ppm | < 12.5 ppm | < 12.5 ppm |  |  |  |  |  |  |  |  |  | 
CC[CH2][Sn]([CH2]CC)([CH2]CC)[S]CCC[Si]12OC(C)CN(CC(C)O1)CC(C)O2 (stereo not shown) [compound 18] | < 2.5 ppm | < 12.5 ppm | < 12.5 ppm | < 12.5 ppm | B (less than 90% to 10%) | A (90% or higher) | 100% |  |  |  |  |  |  | 
CCC[CH2][Sn]([CH2]CCC)([CH2]CCC)[S]CCC[Si]12OC(C)CN(CC(C)O1)CC(C)O2 (stereo not shown) [compound 12] | < 12.5 ppm | < 12.5 ppm | < 12.5 ppm | < 12.5 ppm |  |  | 100% |  |  |  | 100% | 100% | 100% | -
CCC1CN2CC(C)O[Si](CCC[S][Sn]([c]3ccccc3)([c]3ccccc3)[c]3ccccc3)(OC(C)C2)O1 (stereo not shown) [compound 32] | < 12.5 ppm | < 12.5 ppm | < 12.5 ppm | < 12.5 ppm |  |  |  | .circle. | .circle. | .circle. |  |  |  | 
CC[CH2][Sn]([CH2]CC)([CH2]CC)[S]CCC[Si]12OCCN(CC(CC)O1)CC(CC)O2 (stereo not shown) [compound 23] | < 2.5 ppm | < 2.5 ppm | < 2.5 ppm | < 2.5 ppm |  |  |  |  |  |  |  |  |  | 
